Laboratory results as given in patent US20230131025A1, “QUINOLYL PHOSPHINE OXIDE COMPOUND, AND COMPOSITION AND APPLICATION THEREOF” (Betta Pharmaceuticals Co., Ltd., priority 2020, published 2023).

Key:
[1] = tested on: human epidermal cancer cells A431 carrying EGFR WT; assay: Cell proliferation experiment (CellTiter Glo, 72 hours); assay type: cell-based; settings: Homo sapiens, A-431
Summary of the method: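 Cells seeded at 2000 or 3000/well and exposed 72 h to 9-point 3-fold dilutions, top final 10000 nM or 1111 nM, 0.1% DMSO. Viability by CellTiter-Glo luminescence. Inhibition relative to cell and medium controls; IC50 by four-parameter nonlinear regression.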

Ba/F3 EGFR WT = Ba/F3 EGFR WT (Homo sapiens, UniProt P00533); assay: as above; assay type: cell-based; settings: read-out: BaF3 EGFR WT IC50
Chain of Ba/F3 EGFR WT (P00533 whole entry, stated change not applied): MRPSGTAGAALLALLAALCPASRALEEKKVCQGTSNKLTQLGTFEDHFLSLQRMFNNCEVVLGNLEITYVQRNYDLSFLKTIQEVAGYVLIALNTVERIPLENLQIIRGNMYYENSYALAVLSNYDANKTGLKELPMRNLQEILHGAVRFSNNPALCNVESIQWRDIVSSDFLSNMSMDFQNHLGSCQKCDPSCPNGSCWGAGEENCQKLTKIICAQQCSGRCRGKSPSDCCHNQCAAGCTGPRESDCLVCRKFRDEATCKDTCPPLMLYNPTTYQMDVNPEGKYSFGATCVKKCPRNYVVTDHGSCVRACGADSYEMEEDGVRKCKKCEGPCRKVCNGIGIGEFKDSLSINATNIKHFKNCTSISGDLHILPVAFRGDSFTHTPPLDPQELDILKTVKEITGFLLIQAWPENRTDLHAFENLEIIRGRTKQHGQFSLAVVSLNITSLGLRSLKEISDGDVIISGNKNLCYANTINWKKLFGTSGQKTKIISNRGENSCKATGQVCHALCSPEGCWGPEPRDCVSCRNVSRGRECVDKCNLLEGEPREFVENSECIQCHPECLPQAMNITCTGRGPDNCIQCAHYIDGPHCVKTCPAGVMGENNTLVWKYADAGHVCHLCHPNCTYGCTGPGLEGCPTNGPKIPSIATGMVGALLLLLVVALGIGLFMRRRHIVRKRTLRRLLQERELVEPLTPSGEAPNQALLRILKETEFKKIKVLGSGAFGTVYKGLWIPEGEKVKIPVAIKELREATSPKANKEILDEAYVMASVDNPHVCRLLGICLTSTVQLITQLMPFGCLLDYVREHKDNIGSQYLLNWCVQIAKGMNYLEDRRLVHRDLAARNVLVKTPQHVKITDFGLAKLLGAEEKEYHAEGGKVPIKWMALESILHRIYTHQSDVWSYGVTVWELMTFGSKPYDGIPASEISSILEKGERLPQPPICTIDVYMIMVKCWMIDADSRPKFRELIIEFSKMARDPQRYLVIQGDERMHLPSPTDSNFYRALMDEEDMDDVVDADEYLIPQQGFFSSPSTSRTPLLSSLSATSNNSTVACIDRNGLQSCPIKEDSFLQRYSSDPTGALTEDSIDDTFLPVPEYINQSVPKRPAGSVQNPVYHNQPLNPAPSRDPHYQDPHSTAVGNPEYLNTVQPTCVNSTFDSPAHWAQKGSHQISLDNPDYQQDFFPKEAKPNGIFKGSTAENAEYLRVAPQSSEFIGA
Summary of the method: (§1)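 Ba/F3 cells overexpressing EGFR Δ19del/T790M/C797S or EGFR WT were seeded at 2000 or 3000 cells/well and exposed 72 h to 9 compound concentrations (3-fold, top 10000 or 1111 nM final, 0.1% DMSO). CellTiter-Glo luminescence gave survival inhibition versus controls; IC50 from nonlinear fit.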

Ba/F3-Δ19del/T790M/C797S = Ba/F3-Δ19del/T790M/C797S (Homo sapiens, UniProt P00533, T790M/C797S, cells depend on it, form not given); assay: as above; assay type: cell-based; settings: read-out: Ba/F3/EGFR Δ19del/T790M/C797S IC50
Chain of Ba/F3-Δ19del/T790M/C797S (P00533 with tags, fused parts or gaps DEL746-750/T790M/C797S, form open): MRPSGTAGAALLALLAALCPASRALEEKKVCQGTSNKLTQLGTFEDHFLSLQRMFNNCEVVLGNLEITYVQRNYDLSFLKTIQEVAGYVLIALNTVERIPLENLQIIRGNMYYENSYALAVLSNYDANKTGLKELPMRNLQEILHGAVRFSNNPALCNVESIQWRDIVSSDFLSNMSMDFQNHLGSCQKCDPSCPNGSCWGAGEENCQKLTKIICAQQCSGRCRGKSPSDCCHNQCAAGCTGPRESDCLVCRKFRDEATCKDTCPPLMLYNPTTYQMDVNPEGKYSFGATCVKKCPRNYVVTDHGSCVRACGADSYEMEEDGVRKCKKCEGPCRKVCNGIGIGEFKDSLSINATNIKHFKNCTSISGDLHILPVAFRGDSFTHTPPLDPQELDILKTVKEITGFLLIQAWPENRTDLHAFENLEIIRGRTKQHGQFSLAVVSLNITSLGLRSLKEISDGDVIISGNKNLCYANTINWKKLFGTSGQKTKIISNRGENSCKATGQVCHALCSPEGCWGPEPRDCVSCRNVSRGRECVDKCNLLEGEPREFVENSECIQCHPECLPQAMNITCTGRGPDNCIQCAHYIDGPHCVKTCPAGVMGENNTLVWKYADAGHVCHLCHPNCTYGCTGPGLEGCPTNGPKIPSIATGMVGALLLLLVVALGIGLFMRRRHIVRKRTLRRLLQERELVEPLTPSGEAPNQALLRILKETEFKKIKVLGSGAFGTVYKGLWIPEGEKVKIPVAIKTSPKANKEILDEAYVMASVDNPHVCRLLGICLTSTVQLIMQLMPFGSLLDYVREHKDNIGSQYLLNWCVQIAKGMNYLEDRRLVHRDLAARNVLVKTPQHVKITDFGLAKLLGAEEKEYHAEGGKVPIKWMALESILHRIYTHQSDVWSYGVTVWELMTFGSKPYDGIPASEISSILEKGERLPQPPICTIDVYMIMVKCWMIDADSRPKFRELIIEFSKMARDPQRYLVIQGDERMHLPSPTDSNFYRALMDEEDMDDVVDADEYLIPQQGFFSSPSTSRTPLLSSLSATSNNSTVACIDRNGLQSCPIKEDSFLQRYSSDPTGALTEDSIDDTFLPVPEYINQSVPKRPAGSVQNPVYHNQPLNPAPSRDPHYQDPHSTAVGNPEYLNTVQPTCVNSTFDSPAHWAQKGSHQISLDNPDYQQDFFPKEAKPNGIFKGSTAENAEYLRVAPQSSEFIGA
Summary of the method: as §1

IGF1R = IGF1R (Homo sapiens, UniProt P08069); assay: Kinase inhibition assay (mobility shift); assay type: biochemical
Description: (§2) Experiment 1 Kinase Inhibition Assay Mobility shift assays were performed to determine inhibitory activity of compounds against EGFR^Δ19del/T790M/C797S, EGFR WT and IGF1R kinases. The enzymatic reaction scheme is as follows:
(§3) 1. Preparing 1*Kinase Buffer as follows:
(§4) 2. Preparing compound concentration gradient: the initial concentration of the compound tested in the assay was 3,000 nM or 100 nM, which is then diluted to be 100-fold final concentration in 100% DMSO in a 384-source plate. Compounds in 10 concentrations were diluted in a 3-fold gradient with Precision. 250 nL of compound in 100-fold final concentration was transferred to OptiPlate-384F plate by using a dispenser named Echo 550.
(§5) 3. Preparing kinase solution at 2.5-fold the final concentration with 1×kinase buffer.
(§6) 4. Adding 10 μL of kinase solution at 2.5-fold the final concentration to compound wells and positive control wells respectively; and adding 10 μL of 1×kinase buffer to negative control wells.
(§7) 5. Centrifuging the wells at 1,000 rpm for 30 seconds, mixing the reaction plate well by shaking and incubating it at room temperature for 10 minutes.
(§8) 6. Preparing a mixed solution of ATP and kinase substrate at 5-fold/3-fold the final concentration with 1×Kinase buffer, respectively.
(§9) 7. Initiating the reaction by adding 15 μL of the mixed solution of ATP and kinase substrate at 5-fold/3-fold the final concentration.
(§10) 8. Centrifuging the 384-well plate at 1,000 rpm for 30 seconds, mixing the reaction plate well by shaking and incubating it at room temperature for a corresponding time.
(§11) 9. Adding 30 μL of assay stop solution to stop the kinase reaction, and centrifuging the plate at 1,000 rpm for 30 seconds and mixing it well by shaking.
(§12) 10. Reading the conversion rate with Caliper EZ Reader.
(§13) [formula] • wherein, “Conversion % sample” is the conversion rate reading of the sample;
(§14) “Conversion %_min” is the mean value of the negative control wells, representing the conversion rate readings of the well without enzymatic activity; “Conversion %_max” is the mean value of the positive control wells, representing the conversion rate readings of the wells without compound inhibition. • Dose-response curve is plotted with the logarithmic concentration on the X-axis and percent inhibition on the Y-axis. The fitting of the dose-response curve is made with the module “log(inhibitor) vs. response—Variable slope” of the analysis software GraphPad Prism 5, so that the IC50 value of each compound on enzymatic activity is obtained. • The calculation formula is: Y=Bottom+(Top−Bottom)/(1+10^((Log IC50−X)*HillSlope)).

EGFR WT = EGFR WT (Homo sapiens, UniProt P00533); assay: Kinase inhibition assay (mobility shift); assay type: biochemical
Chain of EGFR WT (P00533 25-1210): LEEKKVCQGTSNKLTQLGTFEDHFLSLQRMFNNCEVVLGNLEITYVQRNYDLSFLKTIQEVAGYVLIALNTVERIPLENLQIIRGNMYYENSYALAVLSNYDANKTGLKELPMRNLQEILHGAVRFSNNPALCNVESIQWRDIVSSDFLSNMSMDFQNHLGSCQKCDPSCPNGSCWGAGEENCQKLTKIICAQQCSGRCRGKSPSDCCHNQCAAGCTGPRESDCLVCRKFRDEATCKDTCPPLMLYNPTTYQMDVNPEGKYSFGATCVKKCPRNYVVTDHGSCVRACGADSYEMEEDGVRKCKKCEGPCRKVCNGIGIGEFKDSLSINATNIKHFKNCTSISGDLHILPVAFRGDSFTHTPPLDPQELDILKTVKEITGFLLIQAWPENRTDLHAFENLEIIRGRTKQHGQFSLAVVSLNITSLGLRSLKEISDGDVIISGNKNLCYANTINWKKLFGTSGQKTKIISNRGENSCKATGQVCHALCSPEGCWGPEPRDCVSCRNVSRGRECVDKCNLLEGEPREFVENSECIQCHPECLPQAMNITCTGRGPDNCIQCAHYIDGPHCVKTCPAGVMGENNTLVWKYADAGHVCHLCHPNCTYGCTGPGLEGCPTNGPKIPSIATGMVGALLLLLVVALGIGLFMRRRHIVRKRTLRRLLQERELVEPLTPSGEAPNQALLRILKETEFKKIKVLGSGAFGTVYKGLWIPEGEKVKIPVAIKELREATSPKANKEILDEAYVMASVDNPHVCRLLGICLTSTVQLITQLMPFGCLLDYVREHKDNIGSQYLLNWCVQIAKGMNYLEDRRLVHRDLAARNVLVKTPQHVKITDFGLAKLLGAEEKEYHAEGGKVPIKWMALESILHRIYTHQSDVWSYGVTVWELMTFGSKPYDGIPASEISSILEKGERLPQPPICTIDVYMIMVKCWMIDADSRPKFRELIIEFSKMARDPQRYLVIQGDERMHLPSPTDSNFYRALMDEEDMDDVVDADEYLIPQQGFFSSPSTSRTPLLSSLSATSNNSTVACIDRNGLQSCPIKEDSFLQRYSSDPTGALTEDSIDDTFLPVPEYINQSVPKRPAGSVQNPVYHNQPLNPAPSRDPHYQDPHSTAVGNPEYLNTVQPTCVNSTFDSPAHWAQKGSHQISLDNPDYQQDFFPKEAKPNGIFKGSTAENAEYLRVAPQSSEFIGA
Description: as §2, §3, §4, §5, §6, §7, §8, §9, §10, §11, §12, §13, §14

EGFR Δ19del/T790M/C797S = EGFR Δ19del/T790M/C797S (Homo sapiens, UniProt P00533, T790M/C797S, form not given); assay: Kinase inhibition assay (mobility shift); assay type: biochemical
Chain of EGFR Δ19del/T790M/C797S (P00533 with tags, fused parts or gaps DEL746-750/T790M/C797S, form open): as the sequence (P00533 with tags, fused parts or gaps DEL746-750/T790M/C797S, form open) above
Description: as §2, §3, §4, §5, §6, §7, §8, §9, §10, §11, §12, §13, §14

SMILES	IC50 [1] [nM]	GI50 (Ba/F3 EGFR WT) [nM]	GI50 (Ba/F3-Δ19del/T790M/C797S) [nM]	IC50 (IGF1R) [nM]	IC50 (EGFR WT) [nM]	IC50 (EGFR Δ19del/T790M/C797S) [nM]
CCc1ccc2c(P(C)(C)=O)c(Nc3nc(Nc4cc(C)c(N5CCC(N6CCN(C)CC6)CC5)cc4OC)ncc3Br)ccc2n1 [Compound J-028, (6-((5-Bromo-2-((2-methoxy-5-methyl-4-(4-(4-methylpiperazin-1-yl)piperidin-1-yl)phenyl)amino)pyrimidin-4-yl)amino)-2-ethylquinolin-5-yl)dimethylphosphine oxide]	842	155	20.8	116	19	0.14
COc1cc(Nc2ncc(Br)c(Nc3ccc4nc(C5CC5)ccc4c3P(C)(C)=O)n2)c(C)cc1N1CCOCC1 [Compound J-001, (6-((5-Bromo-2-((5-methoxy-2-methyl-4-morpholinylphenyl)amino)pyrimidin-4-yl)amino)-2-cyclopropylquinoline-5-yl)dimethylphosphine oxide]	1350	396	26.5	63.6	51.7	0.5
C#Cc1ccc2c(P(C)(C)=O)c(Nc3nc(Nc4cc(C)c(N5CCC(N6CCN(C)CC6)CC5)cc4OC)ncc3Br)ccc2n1 [Compound J-013, (6-((5-Bromo-2-((2-methoxy-5-methyl-4-(4-(4-methylpiperazin-1 yl)piperidin-1-yl)phenyl)amino)pyrimidin-4-yl)amino)-2-ethynylquinolin-5-yl)dimethylphosphine oxide]	308	87	15.3	28.2	11.4	0.4
COc1cc(Nc2ncc(Br)c(Nc3ccc4nc(C5CC5)ccc4c3P(C)(C)=O)n2)cc(C)c1N1CCC(N2CCN(C)CC2)CC1 [Compound J-029, (6-((5-Bromo-2-((3-methoxy-5-methyl-4-(4-(4-methylpiperazin-1-yl)piperidin-1-yl)phenyl)amino)pyrimidin-4-yl)amino)-2-cyclopropylquinolin-5-yl)dimethylphosphine oxide]	204	98.5	12.1	58.1	41.3	0.22
COc1cc(N2CCC(N3CCN(C)CC3)CC2)c(C#N)cc1Nc1ncc(Br)c(Nc2ccc3nc(C4CC4)ccc3c2P(C)(C)=O)n1 [Compound J-021, 5-((5-Bromo-4-((2-cyclopropyl-5-(dimethylphosphineoxide)quinolin-6-yl)amino)pyrimidin-2-yl)amino)-4-methoxy-2-(4-(4-methylpiperazin-1-yl)piperidin-1-yl)benzonitrile]	1140	238	11.7	293	19.3	0.3
CCc1cc(Nc2ncc(Br)c(Nc3ccc4nc(C5CC5)ccc4c3P(C)(C)=O)n2)c(OC)cc1N1CCN(C)CC1 [Compound J-011, (6-((5-Bromo-2-((5-ethyl-2-methoxy-4-(4-methylpiperazin-1-yl)phenyl)amino)pyrimidin-4-yl)amino)-2-cyclopropylquinolin-5-yl)dimethylphosphine oxide]	1160	190	4.7	146	45.8	0.7
COc1cc(N2CCC(N3CCN(C)CC3)CC2)c(C)cc1Nc1ncc(Br)c(Nc2ccc3ncccc3c2P(C)(C)=O)n1 [Compound J-041, (6-((5-Bromo-2-((2-methoxy-5-methyl-4-(4-(4-methylpiperazin-1-yl)piperidin-1-yl)phenyl)amino)pyrimidin-4-yl)amino)quinolin-5-yl)dimethylphosphine oxide]	228	354	28.4	25	11.5	0.2
COc1cc(N2CCC(N3CCN(C)CC3)CC2)c(OC)cc1Nc1ncc(Br)c(Nc2ccc3nc(C4CC4)ccc3c2P(C)(C)=O)n1 [Compound J-020, (6-((5-Bromo-2-((2,5-dimethoxy-4-(4-(4-methylpiperazin-1-yl)piperidin-1-yl)phenyl)amino)pyrimidin-4-yl)amino)-2-cyclopropylquinolin-5-yl)dimethylphosphine oxide]	983	144	2.2	107	21	0.72
COc1cc(Nc2ncc(Br)c(Nc3ccc4nc(C5CC5)ccc4c3P(C)(C)=O)n2)c(C)cc1N1CCC(N2CCN(C)CC2)CC1 [Compound J-023, (6-((5-Bromo-2-((5-methoxy-2-methyl-4-(4-(4-methylpiperazin-1-yl)piperidin-J-yl)phenyl)amino)pyrimidin-4-yl)amino)-2-cyclopropylquinolin-5-yl)dimethylphosphine oxide]	877	117	6.4	27	17	0.28
COc1cc(Nc2ncc(Br)c(Nc3ccc4nc(-c5cnn(C)c5)ccc4c3P(C)(C)=O)n2)c(C)cc1N1CCOCC1 [Compound J-007, (6-((5-Bromo-2-((5-methoxy-2-methyl-4-morpholinylphenyl)amino)pyrimidin-4-yl)amino)-2-(1-methyl-1H-pyrazol-4-yl)quinolin-5-yl)dimethylphosphine oxide]	1030	147	6	41	30.3	0.2
CCc1cc(Nc2ncc(Br)c(Nc3ccc4nc(C5CC5)ccc4c3P(C)(C)=O)n2)c(OC)cc1N1CCC(N2CCN(C)CC2)CC1 [Compound J-018, (6-((5-Bromo-2-((5-ethyl-2-methoxy-4-(4-(4-methylpiperazin-1-yl)piperidin-1-yl)phenyl)amino)pyrimidin-4-yl)amino)-2-cyclopropylquinolin-5-yl)dimethylphosphine oxide]	1500	160	1.9	178	7.3	0.3
COc1cc(Nc2ncc(Br)c(Nc3ccc4nc(C5CC5)ccc4c3P(C)(C)=O)n2)c(C)cc1N1CCN(C2CCCC2)CC1 [Compound J-039, (6-((5-Bromo-2-((4-(4-cyclopentylpiperazin-1-yl)-5-methoxy-2-methylphenyl)amino)pyrimidin-4-yl)amino)-2-cyclopropylquinolin-5-yl)dimethylphosphine oxide]	1110	256	12	21.5	33.5	0.5
CCc1cc(N2CCOCC2)c(OC)cc1Nc1ncc(Br)c(Nc2ccc3nc(C4CC4)ccc3c2P(C)(C)=O)n1 [Compound J-003, (6-((5-Bromo-2-((2-ethyl-5-methoxy-4-morpholinylphenyl)amino)pyrimidin-4-yl)amino)-2-cyclopropylquinoline-5-yl)dimethylphosphine oxide]	3040	646	25.7	189	172	0.5
COc1cc(N2CCN(C)CC2)c(C#N)cc1Nc1ncc(Br)c(Nc2ccc3nc(C4CC4)ccc3c2P(C)(C)=O)n1 [Compound J-012, 5-((5-Bromo-4-((2-cyclopropyl-5-(dimethylphosphineoxide)quinolin-6-yl)amino)pyrimidin-2-yl)amino)-4-methoxy-2-(4-methylpiperazin-1-yl)benzonitrile]	830	130	3.4	279	43.9	0.2
